Experimental data as given in doi:10.1101/704981v1 (biorxiv, 2019).

Biological target: EcThrRS (Escherichia coli, UniProt P0A8M3)
Assay: tRNA aminoacylation assay, initial rates, dose-response fit
Assay type: biochemical

Sequence of EcThrRS (P0A8M3 whole entry): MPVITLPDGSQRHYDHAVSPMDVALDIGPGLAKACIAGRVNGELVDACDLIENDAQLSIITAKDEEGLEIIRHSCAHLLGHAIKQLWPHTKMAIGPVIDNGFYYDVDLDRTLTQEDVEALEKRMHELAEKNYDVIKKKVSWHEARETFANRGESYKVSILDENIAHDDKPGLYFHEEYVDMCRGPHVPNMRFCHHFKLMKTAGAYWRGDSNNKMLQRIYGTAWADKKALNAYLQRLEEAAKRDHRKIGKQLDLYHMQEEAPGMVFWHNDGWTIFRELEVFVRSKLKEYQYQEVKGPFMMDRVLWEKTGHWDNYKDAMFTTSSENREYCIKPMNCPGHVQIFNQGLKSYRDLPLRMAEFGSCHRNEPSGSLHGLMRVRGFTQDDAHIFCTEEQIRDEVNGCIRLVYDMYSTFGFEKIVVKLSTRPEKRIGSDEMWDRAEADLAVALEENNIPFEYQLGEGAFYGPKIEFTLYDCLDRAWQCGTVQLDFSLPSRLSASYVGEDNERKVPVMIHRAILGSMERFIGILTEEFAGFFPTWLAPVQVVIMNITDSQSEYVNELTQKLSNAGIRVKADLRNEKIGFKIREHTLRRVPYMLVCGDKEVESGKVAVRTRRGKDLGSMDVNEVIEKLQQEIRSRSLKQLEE

Which IC50 does the source give for `O=C(N[C@@H]1C(=O)O[C@@H]1Cc1ccc([N+](=O)[O-])cc1)c1cccc(O)c1O` [compound 1, obafluorin] here?
Its IC50 is 92 ± 21 nM.
